From publication PMC5855801, “Benzothiophenone Derivatives Targeting Mutant Forms of Estrogen Receptor-α in Hormone-Resistant Breast Cancers” (International Journal of Molecular Sciences, 2018)

How the values were obtained:
MCF7 cells = experiment: Presto Blue cell viability assay, MCF7; type: cell-based, human; details: MCF7, 96 h, two-fold dilution starting at 50 µM
Experimental: (§1) The Presto Blue cell viability assay was used to assess the growth inhibitory potential of VPC-16606 on ERα^+ T47D, MCF7, ZR75-1 and TamR3 cells. They were treated for 96 h with a two-fold dilution range of the compound starting at 50 µM.
(§2) Cell viability was determined using the Presto Blue cell viability assay (Thermo Fisher Scientific, Waltham, MA, USA). Cells were seeded in clear bottom black-walled 96-well plates at a density of 5 × 10^3 cells/well in 100 μL of their respective media. On the following day, the cells were treated with test compounds (0.001–22.5 μM) in the presence of 1 nM E2 and incubated at 37 °C. After 96 h, 30 μL of Presto Blue reagent was added and incubated for 10 min at 37 °C. The fluorescent signal from viable cells was measured at 590 nm.

ZR75-1 cells = experiment: Presto Blue cell viability assay, ZR75-1; type: cell-based, human; details: ZR75-1, 96 h, two-fold dilution starting at 50 µM
Experimental: as §1, §2

T47D cells = experiment: Presto Blue cell viability assay, T47D; type: cell-based, human; details: 96 h, two-fold dilution starting at 50 µM
Experimental: as §1, §2

[1] = tested on: ERα-dependent genes pS2, PR, Cyclin D1 and CDC2; experiment: qRT-PCR of ERα-dependent genes in TamR3 cells; type: cell-based, human; details: TamR3, 24 h, 1 nM E2
Experimental: mRNA levels were analyzed after treatment of MCF7 and TamR3 cells for 24 h with the test compounds as described previously. The fold change in expression of the genes was calculated using the 2^−ΔΔCt method with GAPDH as the internal control.

ERβ LBD = ERβ LBD (Homo sapiens, UniProt Q92731); experiment: TR-FRET coactivator peptide displacement assay with ERβ-LBD; type: biochemical; details: purified ERβ LBD
Chain of ERβ LBD (Q92731 264-498 limits assumed, species assumed): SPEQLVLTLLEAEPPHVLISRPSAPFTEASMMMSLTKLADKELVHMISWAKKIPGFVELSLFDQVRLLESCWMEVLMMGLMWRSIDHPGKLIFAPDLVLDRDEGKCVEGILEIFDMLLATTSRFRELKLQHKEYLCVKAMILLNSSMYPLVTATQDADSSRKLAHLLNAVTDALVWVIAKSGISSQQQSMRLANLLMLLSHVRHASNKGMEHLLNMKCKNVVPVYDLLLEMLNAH
Source text: Given that tamoxifen acts as a pure antagonist of ERβ [34], the effect of VPC-16606 on ERβ and its corresponding implications in breast cancer will also need to be evaluated. Moreover, the role of ERβ in breast cancer biology is not yet clear, with some evidence pointing towards ERβ exerting proliferating effects in the absence of ERα [36].
(§3) Supplementary Materials: Benzothiophenone Derivatives Targeting Mutant Forms of Estrogen Receptor-α in Hormone-Resistant Breast Cancers
(§4) Figure S1. Effect of VPC-16606 on viability of PC3 cells as measured in the Presto Blue assay. […]
(§5) Figure S2. TR-FRET Assay showing displacement of Fluorescein labelled PGC1 α peptide by VPC-16606 upon incubation with ER β-LBD. OHT was used at 1µM. Error bars represent standard deviation for two independent experiments performed in triplicates. […]

PC3 cells = experiment: Presto Blue cell viability assay, PC3; type: cell-based, human; details: PC3, 50 µM, 96 h
Experimental: as §2, §3, §4, §5

SMILES: CC(=O)N(/N=C1\Sc2c(C)cccc2C1=O)c1ccccc1Cl [VPC-16606]
- Cell growth (Presto Blue viability) (MCF7 cells): significantly reduce the growth
- Cell growth (Presto Blue viability) (ZR75-1 cells): significantly reduce the growth
- Cell growth (Presto Blue viability) (T47D cells): significantly reduce the growth
- mRNA levels of ERα-dependent genes pS2, PR, Cyclin D1 and CDC2 [1]: significantly downregulates
- Displacement of fluorescein labelled PGC1α peptide from ERβ LBD (TR-FRET) (ERβ LBD): resulted in peptide displacement
- Cell viability of PC3 cells (PC3 cells): affects cell viability
